Converted amounts (≈) assume the structure as drawn. The source made the active and inactive calls. The calls are words filed in the database; no cut-off is given here. Starred links: 1 amine or outer side, 2 acyl side, 3 side chain; linkers in the order of their positions; H or OH if unused. Non-standard residues stand in square brackets, D forms with d. Residues, ends and D or L forms follow the SMILES beside them. NMeI = CC[C@H](C)[C@H](NC)C(=O)O; X1 = C=CC[C@H](O[*:1])C(=O)[*:2]; Hica(2S) = CC(C)C[C@H](O)C(=O)O; NMeA = CN[C@@H](C)C(=O)O; βAla = NCCC(=O)O

Assay [1] concerns Drosophila melanogaster. The assay is described as follows: Insecticidal activity against Drosophila melanogaster assessed as mortality at 200 ug/ml after 40 hrs. Type of assay: functional, organism-based.
Assay [2] has as its system Drosophila melanogaster. The assay is described as follows: Insecticidal activity against Drosophila melanogaster after 40 hrs. Type of assay: functional.
Assay [3] relates to Drosophila melanogaster. The experiment in a line: Insecticidal activity against Drosophila melanogaster assessed as mortality at 400 ug/ml after 48 hrs. Type of assay: functional, organism-based.

Turning to `C=CC[C@@H]1OC(=O)CCNC(=O)[C@H](C)N(C)C(=O)[C@H]([C@@H](C)CC)N(C)C(=O)[C@H]([C@@H](C)CC)NC(=O)[C@@H]2CCCN2C1=O` [destruxin A4] (cyclo(I[NMeI][NMeA][βAla][X1]P)), in assay [1], the outcome was Active. The compound also gave an LC50 in assay [2] of 41 µg/mL (≈ 69.3 µM). Consider `CC[C@H](C)[C@@H]1NC(=O)[C@@H]2CCCN2C(=O)[C@H](CC(C)C)OC(=O)CCNC(=O)[C@H](C)N(C)C(=O)[C@H]([C@@H](C)CC)N(C)C1=O` (cyclo(I[NMeI][NMeA][βAla][Hica(2S)]P)), for which, in assay [3], the outcome was inactive. For the compound `C=CCC1OC(=O)CCNC(=O)[C@H](C)N(C)C(=O)[C@H]([C@@H](C)CC)N(C)C(=O)[C@H]([C@@H](C)CC)NC(=O)[C@@H]2C(C)CCN2C1=O` (stereo not given in full) [DESTRUXIN A5], in assay [1], the outcome was Active. Further, in assay [2], the LC50 was determined as 52 µg/mL (≈ 85.8 µM).
